Assay results taken from patent publication US9963444B2, “N-acylethanolamine hydrolyzing acid amidase (NAAA) inhibitors and their use thereof” (Northeastern University, priority 2014, dated 2018).
Read-outs that look alike come from different tables or passages of the source.

Assays:
hNAAA [1] = target: T1, hNAAA (Homo sapiens (Human), UniProt Q02083); assay: Inhibition kinetics of hNAAA (pre-incubation, Lineweaver-Burk plot, rapid dilution); type: biochemical
Experimental: The curves represent 15 minutes (filled circles, solid line) and 3 hours (open circles, dotted line) preincubation of hNAAA with NAAA inhibitor Example 4.
Example 4 inhibition kinetics of hNAAA (reversible or irreversible) was investigated using two methods: (1) Short (15 min) and long (180 min) pre-incubation of the inhibitor and enzyme prior to addition of N-(4-methyl coumarin) palmitamide (PAMCA) substrate (FIG. 1). Example's 4 inhibition concentration (IC50) was unaffected by longer pre-incubation of hNAAA with 4.

TNBS-induced colitis = TNBS-induced colitis in mice; type: in vivo
Experimental: NAAA inhibitor Example 4 (10 mg/kg bid, ip) *p<0.05 versus the TNBS untreated group.
PEA (10 mg/kg) and NAAA inhibitor Example 4 (AM; 10 mg/kg bid, ip). Mice were sacrificed on day 3 after administration. Effects of PEA and Example 4 on colon weight/length ratio, feces and MPO activity, mRNA expression of F4-80, CD11b, IL-12, TNF-α, MCP-1 and IL-1β expression measured by ELISA. #p<0.05; ##p<0.005; ###p<0.001 versus control mice; *p<0.05 versus the TNBS-untreated group.
TNBS-induced colitis is accompanied by increased pro-inflammatory cytokines expression in the liver and brain. Effects of PEA administration and NAAA inhibition with Example 4 (10 mg/kg b.i.d) on pro-inflammatory cytokines expression in (A) the liver and (B) brain. Results are expressed as mean±SEM with n=10mice/group. *p<0.05; **p<0.005; ***p<0.001 versus the TNBS untreated group.
Applicants also studied the compound of Example 4 in animal models of trinitrobenzene sulfonic acid (TNBS)- and dextran sodium sulfate (DSS)-induced colitis. This study aimed to investigate the effects of inhibiting NAAA responsible for PEA hydrolysis in colon inflammation in order to propose a potential therapeutic target for inflammatory bowel diseases. PEA is a known anti-inflammatory compound with analgesic, neuroprotective and anti-allergic properties, and was recently shown to exert PPARα dependent beneficial effects on colon inflammation [Laboratory Investigation; a Journal of Technical Methods and Pathology. 2004; 84: 1643-54].

hNAAA [2] = target: T1, hNAAA; assay: Fluorescence-based NAAA inhibition assay with fluorogenic substrate PAMCA;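 further: compound preincubated 15 min at room temperature with hNAAA, then PAMCA added at 5 µM, reacted 120 min at 37 °C, AMC release read by fluorescence (ex 360, em 460 nm)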
Experimental: For three point concentration inhibition assays with hNAAA the following procedure is used. […] These samples are allowed to incubate for 15 min at room temperature and then 10 μL of a PAMCA stock solution in DMSO (final PAMCA concentration [5 μM]) was added. After 5 minutes of agitation on a shaking plate, the reaction is allowed to proceed at 37° C. for 120 minutes, with fluorescence readings taken every 10 minutes at a wavelength of 460 nm (using an excitation wavelength of 360 nm) on a Synergy HT Plate Reader using Gen5 software from Bio-Tek. The enzyme activity is calculated by converting the relative fluorescence units to AMC formed, using a standard curve of AMC. […] The assay procedure used is the same as the three point assay. […] After 5 minutes of agitation on a shaking plate, the reaction is allowed to proceed at 37° C. for 120 minutes Inhibition constants are calculated using pro Fit software (Quantum Soft, Uetikon am See, Switzerland) and a Levenberg-Marquardt algorithm.
For three point concentration inhibition assays with hNAAA the following procedure is used. […] These samples are allowed to incubate for 15 min at room temperature and then 10 μL of a PAMCA stock solution in DMSO (final PAMCA concentration [5 μM]) was added. After 5 minutes of agitation on a shaking plate, the reaction is allowed to proceed at 37° C. for 120 minutes, with fluorescence readings taken every 10 minutes at a wavelength of 460 nm (using an excitation wavelength of 360 nm) on a Synergy HT Plate Reader using Gen5 software from Bio-Tek. The enzyme activity is calculated by converting the relative fluorescence units to AMC formed, using a standard curve of AMC.
The assay procedure used is the same as the three point assay. […] After 5 minutes of agitation on a shaking plate, the reaction is allowed to proceed at 37° C. for 120 minutes. Inhibition constants are calculated using pro Fit software (Quantum Soft, Uetikon am See, Switzerland) and a Levenberg-Marquardt algorithm.

[3] = 10 mg/kg bid, ip, sacrificed day 3
[4] = read-out: NAAA Inhibition IC50 μM, purified hNAAA, PAMCA 5 μM, pH 4.5

T1 sequence (Q02083 29-125): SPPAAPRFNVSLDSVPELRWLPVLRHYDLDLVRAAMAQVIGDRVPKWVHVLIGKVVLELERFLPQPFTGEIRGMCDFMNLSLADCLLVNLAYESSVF
T1 sequence (Q02083 126-359): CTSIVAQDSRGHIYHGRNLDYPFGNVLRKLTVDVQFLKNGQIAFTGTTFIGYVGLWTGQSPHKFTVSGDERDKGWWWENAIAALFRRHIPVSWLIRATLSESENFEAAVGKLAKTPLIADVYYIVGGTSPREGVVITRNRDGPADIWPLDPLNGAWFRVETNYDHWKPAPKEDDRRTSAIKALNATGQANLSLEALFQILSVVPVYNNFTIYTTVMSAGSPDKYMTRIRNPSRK

IC50 (hNAAA [2]) [µM] | IC50 (hNAAA [2]; [4]) [µM] | SMILES | other results
0.01 to 0.1 |  | COc1cccc(-c2ccc(C(OC3CN(C#N)C3)c3ccccc3)cc2)c1 (stereo not drawn) [Example 100, 3-((3′-Methoxy-[1,1′-biphenyl]-4-yl)(phenyl)methoxy)azetidine-1-carbonitrile] | 
0.01 to 0.1 |  | Cc1noc(C)c1-c1ccc(C(OC2CN(C#N)C2)c2ccccc2)cc1 (stereo not drawn) [Example 101, 3-((4-(3,5-Dimethylisoxazol-4-yl)phenyl)(phenyl)methoxy)azetidine-1-carbonitrile] | 
0.01 to 0.1 |  | Cn1cc(-c2ccc(C(OC3CN(C#N)C3)c3ccccc3)cc2)cn1 (stereo not drawn) [Example 102, 3-((4-(1-Methyl-1H-pyrazol-4-yl)phenyl)(phenyl)methoxy)azetidine-1-carbonitrile] | 
0.01 to 0.1 |  | CN(Cc1ccc(-c2ccccc2)cc1)C1CN(C#N)C1 [Example 103, 3-(([1,1′-Biphenyl]-4-ylmethyl)(methyl)amino)azetidine-1-carbonitrile] | 
0.11 to 1 |  | N#CN1CC[C@H](OCc2ccc(-c3ccccc3)cc2)C1 [Example 104, (S)-3-([1,1′-Biphenyl]-4-ylmethoxy)pyrrolidine-1-carbonitrile] | 
0.01 to 0.1 |  | N#CN1CC[C@@H](OCc2ccc(-c3ccccc3)cc2)C1 [Example 105, (R)-3-([1,1′-biphenyl]-4-ylmethoxy)pyrrolidine-1-carbonitrile] | 
 | > 1 | N#CN1CCC(Oc2ccc(Br)cc2)CC1 [Example 106, 4-(4-Bromophenoxy)piperidine-1-carbonitrile] | 
 | > 1 | N#C[C@H]1C[C@H](OCc2ccc(-c3ccccc3)cc2)C1 [Example 107, (1R,3R)-3-([1,1′-Biphenyl]-4-ylmethoxy)cyclobutane-1-carbonitrile] | 
 | > 1 | N#C[C@H]1C[C@@H](OCc2ccc(-c3ccccc3)cc2)C1 [Example 108, (1S,3S)-3-([1,1′-biphenyl]-4-ylmethoxy)cyclobutane-1-carbonitrile] | 
 | > 1 | COc1cccc(-c2ccc(COC3CN(CC#N)C3)cc2)c1 [Example 109, 2-(3-((3′-Methoxy-[1,1′-biphenyl]-4-yl)methoxy)azetidin-1-yl)acetonitrile] | 
 | > 1 | N#Cc1ccc(OCc2ccc(Oc3ccccc3)cc2Br)cn1 [Example 110, 5-((2-Bromo-4-phenoxybenzyl)oxy)picolinonitrile] | 
 | > 1 | N#Cc1ccc(OCc2ccc(-c3ccccc3)cc2)cn1 [Example 111, 5-([1,1′-Biphenyl]-4-ylmethoxy)picolinonitrile] | 
 | > 1 | N#Cc1ncc(OCc2ccc(-c3ccccc3)cc2)cc1F [Example 112, 5-([1,1′-Biphenyl]-4-ylmethoxy)-3-fluoropicolinonitrile] | 
 | > 1 | N#Cc1ncc(F)cc1OCc1ccc(-c2ccccc2)cc1 [Example 113, 3-([1,1′-Biphenyl]-4-ylmethoxy)-5-fluoropicolinonitrile] | 
 | > 1 | N#Cc1cccc(C(=O)OCCCCCc2ccccc2)n1 [Example 114, 5-phenylpentyl 6-cyanopicolinate] | 
0.11 to 1 |  | N#Cc1ncc(OCCCCCCc2ccccc2)cn1 [Example 115, 5-((6-phenylhexyl)oxy)pyrimidine-2-carbonitrile] | 
 | > 1 | N#Cc1ncc(OCCCCCc2ccccc2)cn1 [Example 116, 5-((5-phenylpentyl)oxy)pyrimidine-2-carbonitrile] | 
 | > 1 | N#Cc1ncc(OCCOCCOCc2ccccc2)cn1 [Example 117, 5-(2-(2-(benzyloxy)ethoxy)ethoxy)pyrimidine-2-carbonitrile] | 

SMILES | IC50 (hNAAA [2]) [µM] | IC50 (hNAAA [2]; [4]) [µM] | other results
S=C=NCCCCCCCCCCc1ccccc1 [Example 4, (10-Isothiocyanatodecyl)benzene] | 0.01 to 0.1 |  | Effect of longer pre-incubation on IC50 (hNAAA [1]; 15 min vs 180 min pre-incubation of inhibitor and enzyme before PAMCA): unaffected; Type of inhibition (Lineweaver-Burk plot) (hNAAA [1]; PAMCA at different concentrations, inhibitor 50 nM): competitive type inhibitor; Mode of inhibition (reversibility) (hNAAA [1]; conclusion from pre-incubation and rapid dilution): reversible and non-covalent inhibitor; Recovery of enzyme activity in rapid dilution experiment (hNAAA [1]; dilution to inhibitor concentration below IC50): fully recovered; Pro-inflammatory cytokines and chemokines expression in the liver and brain (TNBS-induced colitis; 10 mg/kg b.i.d, liver and brain): decreased; PEA levels in the colon (TNBS-induced colitis; 10 mg/kg bid, ip, TNBS-induced colitis): increased; Expression of pro-inflammatory cytokines and chemokines in colon (TNBS-induced colitis; 10 mg/kg bid, ip, colon): reduced; Leukocyte infiltration and activation (MPO activity, F4-80 and CD11b expression) (TNBS-induced colitis; 10 mg/kg bid, ip, colon): reduced; All measured parameters of colon inflammation (TNBS-induced colitis; [3]): decreased; Colon weight/length ratio (TNBS-induced colitis; [3]): reduced; Weight of the cecal content (TNBS-induced colitis; [3]): reduced
